Source: article PMC10999543, “Identification of kinase modulators as host-directed therapeutics against intracellular methicillin-resistant Staphylococcus aureus” (Frontiers in Cellular and Infection Microbiology, 2024)
Read-outs that look alike come from different tables or passages of the source.

Columns and labels:
[1] = tested on: intracellular MRSA in HeLa cells; test: Gentamicin protection assay with CFU count in MRSA-infected HeLa cells; format: cell-based, Staphylococcus aureus; settings: for effect on intracellular MRSA burden: 991 used at 25 μM, rapamycin at 1 μM, Figure 5J
Protocol: The cells were resuspended in cell culture medium without antibiotics, seeded with 10,000 cells/well into Costar flat-bottom 96-well plates (Corning, Amsterdam, the Netherlands), and were incubated overnight at 37°C/5% CO2. The next day, the bacteria were centrifuged at ≥1800 g for 15 min and resuspended in cold PBS + 5 mM ethylenediaminetetraacetic acid (EDTA). The number of CFUs present in the bacterial suspension was estimated from the optical density at 600 nm (OD600) by assuming 8x10^8 CFUs to be present in a bacterial suspension with OD600 = 1, based on prior titrations. The bacterial suspension was diluted in cell culture medium without antibiotics and added to the cells. Accuracy of the multiplicity of infection (MOI) was validated by plating serial dilutions of the MRSA inoculums on Difco TS agar plates (BD Biosciences). The calculated mean MOI throughout all experiments was 6.8 ± 4.6 (mean ± SD). Infected cells were centrifuged for 3 min at 150 g and incubated for 1 hour at 37°C/5% CO2. Next, the cells were incubated with fresh cell culture medium supplemented with 30 µg/ml gentamicin sulphate (Lonza BioWhittaker, Basel, Switzerland) for 15 min at 37°C/5% CO2 to kill residual extracellular bacteria. Infected cells were incubated overnight at 37°C/5% CO2 in cell culture medium in the presence of kinase inhibitors and 5 µg/ml gentamicin sulphate-containing medium to prevent the growth of extracellular bacteria. The solvent of the compounds, DMSO, was used at equal % v/v as a negative control. For the screen, each compound was tested in triplicate, on separate cell culture plates, resulting in triplicate values for each kinase inhibitor.
Infected cells were lysed in sterile water + 0.05% UltraPure SDS solution (Invitrogen, ThermoFisher Scientific) to release intracellular bacteria. Bacterial suspensions and lysates of cells infected with MRSA were 5-fold serially diluted and 10-μl drops were plated on square TS agar plates. The plates were left to dry and incubated overnight at 37°C/5% CO2.

planktonic MRSA cultures = test: Bacterial growth assay in cell-free planktonic MRSA cultures (OD600); format: cell-based, Staphylococcus aureus; settings: for direct antibiotic effects against MRSA: planktonic cultures
Protocol: […] The absorbance was measured using an EnVision plate reader (PerkinElmer). The plates were incubated at 37°C overnight and the absorbance was measured again the next day. Real-time measurement of bioluminescence by the MRSA-lux strain was performed in a white flat-bottom 96-wells plate using a SpectraMax i3x plate reader and an integration time set at 9000 ms.

MRSA = settings: especially against MRSA biofilm formation; ref Liu et al., 2022; cited from earlier work
intracellular MRSA = format: cell-based, Staphylococcus aureus; settings: for %GFP+ rep 1 / z-scoreMRSA+ rep 1: replicate 1; for %GFP+ rep 2 / z-scoreMRSA+ rep 2: replicate 2; for %GFP+ rep 3 / z-scoreMRSA+ rep 3: replicate 3; for z-scoreMRSA+ mean / z-scoreMRSA+ rep 1 / z-scoreMRSA+ rep 2 / z-scoreMRSA+ rep 3 / hit / effect: PKIS compound screen; for z-scoreMRSA+ mean: mean of 3 replicates; for hit: Yes/No call (effect without cell death)
Procedure, shortened: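 HeLa cells infected with GFP-MRSA (MOI ~6.8), gentamicin-cleared, then incubated overnight at 37°C with inhibitors plus 5 µg/ml gentamicin; DMSO as negative control, triplicates. Flow cytometry gave % GFP-positive cells and cell count (viability surrogate); hits by plate z-score (MRSA ≤ -2, HeLa count ≥ -3).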

HeLa cells = test: Compound screen by flow cytometry: HeLa cell count as surrogate readout of cell viability (z-scoreHeLa); format: cell-based, human; settings: for cell count rep 1 / z-scoreHeLa rep 1: replicate 1; for cell count rep 2 / z-scoreHeLa rep 2: replicate 2; for cell count rep 3 / z-scoreHeLa rep 3: replicate 3; for z-scoreHeLa mean / z-scoreHeLa rep 1 / z-scoreHeLa rep 2 / z-scoreHeLa rep 3 / cell death: PKIS compound screen; for z-scoreHeLa mean: mean of 3 replicates
Procedure, shortened: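 HeLa cells were infected with GFP-MRSA (mean MOI 6.8 ± 4.6) for 1 h, and extracellular bacteria were killed with 30 µg/ml gentamicin. Cells were then incubated overnight with kinase inhibitors in 5 µg/ml gentamicin, in triplicate against DMSO controls. Flow-cytometric cell count served as a viability surrogate, expressed as a plate z-score.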

HER4 [2] = tested on: HER4; design: method as in Drewry et al., 2017; settings: PKIS2, KinomeScan, ref Drewry et al., 2017; cited from earlier work
HER2 [3] = tested on: HER2; design: method as in Drewry et al., 2017; settings: PKIS2, KinomeScan, ref Drewry et al., 2017; cited from earlier work
EGFR [4] = tested on: EGFR; design: method as in Drewry et al., 2017; settings: PKIS2, KinomeScan, ref Drewry et al., 2017; cited from earlier work
EGFR [5] = tested on: EGFR; design: method as in Elkins et al., 2016; settings: PKIS1, Caliper assay, ref Elkins et al., 2016; cited from earlier work
HER4 [6] = tested on: HER4; design: method as in Elkins et al., 2016; settings: PKIS1, Caliper assay, ref Elkins et al., 2016; cited from earlier work
HER2 [7] = tested on: HER2; design: method as in Elkins et al., 2016; settings: PKIS1, Caliper assay, ref Elkins et al., 2016; cited from earlier work
[8] = PKIS compound screen raw data, MRSA-infected HeLa cells
[9] = PKIS compound screen raw data, HeLa cell count
[10] = PKIS compounds raw data, MRSA-infected HeLa cells
[11] = PKIS compounds raw data, HeLa cell count

CS(=O)(=O)CCNCc1ccc(-c2ccc3ncnc(Nc4ccc(OCc5cccc(F)c5)c(Cl)c4)c3c2)o1 [lapatinib, reference compound]
increase in the intracellular bacterial burden ([1]; 3 µM, HeLa cells): 80%
activity against intracellular MRSA ([1]; 10 and 30 µM, HeLa cells): only modestly active
effect on planktonic MRSA growth (direct antibiotic effect) (planktonic MRSA cultures; up to 100 µM concentration, Supplementary Figure S5): did not observe this direct effect
concentrations resulting in direct antimicrobial effects (MRSA): above 10 µM

NC(=O)c1cccc(Nc2nccc(Nc3ccc(Oc4cccc(Cl)c4)c(Cl)c3)n2)c1 [GW659008A]
inhibition at 10 µM (planktonic MRSA cultures; Staphylococcus aureus, MRSA, read-out: inhibition of planktonic MRSA growth): 67.3%
%GFP+ rep 1 (intracellular MRSA; [8]): 9.2%
%GFP+ rep 2 (intracellular MRSA; [8]): 10.5%
%GFP+ rep 3 (intracellular MRSA; [8]): 10.3%
z-scoreMRSA+ mean (intracellular MRSA; MRSA-infected HeLa cells): -2.69
z-scoreMRSA+ rep 1 (intracellular MRSA; MRSA-infected HeLa cells): -2.76
z-scoreMRSA+ rep 2 (intracellular MRSA; MRSA-infected HeLa cells): -2.41
z-scoreMRSA+ rep 3 (intracellular MRSA; MRSA-infected HeLa cells): -2.89
hit (intracellular MRSA): Yes
effect (intracellular MRSA; Yes/No call on z-scoreMRSA+): Yes
cell count rep 1 (HeLa cells; [9]): 25296
cell count rep 2 (HeLa cells; [9]): 38684
cell count rep 3 (HeLa cells; [9]): 42387
z-scoreHeLa mean (HeLa cells; HeLa cell count): 0.60
z-scoreHeLa rep 1 (HeLa cells; HeLa cell count): 0.78
z-scoreHeLa rep 2 (HeLa cells; HeLa cell count): 0.73
z-scoreHeLa rep 3 (HeLa cells; HeLa cell count): 0.30
cell death (HeLa cells; Yes/No call on z-scoreHeLa): No

CS(=O)(=O)CCNCc1nc(-c2ccc3ncnc(Nc4ccc(OCc5ccccc5)c(Cl)c4)c3c2)cs1 [GW582764]
% inhibition at 1 µM HER4 (HER4 [2]): 97.8%
% inhibition at 1 µM HER2 (HER2 [3]): 100%

CO/C1=C\C(C)=C\[C@@H](C)[C@@H](O)[C@@H](C)C/C(C)=C/C=C/[C@H](OC)[C@@H]([C@@H](C)[C@@H](O)[C@H](C)[C@@]2(O)C[C@@H](O)[C@H](C)[C@@H](C(C)C)O2)OC1=O [bafilomycin A1, reference compound]
reduction in the intracellular bacterial burden ([1]; HeLa cells, bafilomycin A1 alone (used at 100 nM)): 70%
direct antibiotic effects against MRSA (planktonic MRSA cultures; Supplementary Figure S5): not the case

CO[C@H]1C[C@@H]2CC[C@@H](C)[C@@](O)(O2)C(=O)C(=O)N2CCCC[C@H]2C(=O)O[C@H]([C@H](C)C[C@@H]2CC[C@@H](O)[C@H](OC)C2)CC(=O)[C@H](C)/C=C(\C)[C@@H](O)[C@@H](OC)C(=O)[C@H](C)C[C@H](C)/C=C/C=C/C=C/1C [rapamycin, reference compound]
effect on intracellular MRSA burden ([1]; HeLa cells): able to reduce the intracellular MRSA burden similar to GW296115X
direct antibiotic effects against MRSA (planktonic MRSA cultures; Supplementary Figure S5): not the case

Cc1ccc(Oc2nc3cc(-c4ccc5c(ccn5C)c4)c(Cl)cc3[nH]2)cc1C(=O)O [Compound 991, reference compound]
effect on intracellular MRSA burden ([1]; HeLa cells): able to reduce the intracellular MRSA burden similar to GW296115X
direct antibiotic effects against MRSA (planktonic MRSA cultures; Supplementary Figure S5): shows direct antibiotic effects

CS(=O)(=O)CCNCc1nc(-c2ccc3ncnc(Nc4ccc(OCc5cccc(F)c5)c(Cl)c4)c3c2)cs1 [GW583340]
% inhibition at 1 µM EGFR (EGFR [4]): 99.9%
% inhibition at 1 µM HER4 (HER4 [2]): 99.1%
% inhibition at 1 µM HER2 (HER2 [3]): 99.7%

CCCN(CCS(C)(=O)=O)Cc1ccc(-c2ccc3ncnc(Nc4ccc(OCc5cccc(F)c5)c(Cl)c4)c3c2)o1 [GW621823A]
% inhibition at 1 µM EGFR (EGFR [5]): 78%
CFU (% of DMSO) at 10 µM ([1]; 10 µM, MRSA-infected HeLa cells): 68.4 % of DMSO
effect (intracellular MRSA; Yes/No call): Yes
hit (intracellular MRSA): Yes
z-scoreMRSA+ mean (intracellular MRSA): -2.21
z-scoreMRSA+ rep 1 (intracellular MRSA): -2.10
z-scoreMRSA+ rep 2 (intracellular MRSA): -1.86
z-scoreMRSA+ rep 3 (intracellular MRSA): -2.67
%GFP+ rep 1 (intracellular MRSA; [10]): 6.6%
%GFP+ rep 2 (intracellular MRSA; [10]): 7.9%
%GFP+ rep 3 (intracellular MRSA; [10]): 6.9%
% inhibition at 1 µM HER4 (HER4 [6]): 79%
cell death (HeLa cells; Yes/No call): No
z-scoreHeLa mean (HeLa cells): 0.59
z-scoreHeLa rep 1 (HeLa cells): 0.17
z-scoreHeLa rep 2 (HeLa cells): 0.58
z-scoreHeLa rep 3 (HeLa cells): 1.02
cell count rep 1 (HeLa cells; [11]): 4961
cell count rep 2 (HeLa cells; [11]): 5042
cell count rep 3 (HeLa cells; [11]): 9090
% inhibition at 1 µM HER2 (HER2 [7]): 82%
